Source: patent publication US9663528B2, “Substituted 1,2,3,4,6,8,12,12a-octahydro-1,4-methanodipyrido[1,2-a:1',2'-d]pyrazines and methods for treating viral infections” (priority 2012, dated 2017)
Like-named read-outs stand apart in the source and are kept apart here.

Tests used:
[1] = Cytotoxicity (CC50) in MT-4 cells, mock-infected, CellTiter-Glo; conditions: human
Experimental: For the antiviral assay utilizing MT4 cells, 0.4 μL of […] test concentration of 3-fold serially diluted compound in DMSO was added to 40 μL of cell growth medium (RPMI 1640, 10% FBS, 1% penicilline/Streptomycine, 1% L-Glutamine, 1% HEPES) in each well of 384-well assay plates (10 concentrations) in quidruplicate.
1 mL aliquots of 2×10^6 MT4 cells are pre-infected for 1 and 3 hours respectively at 37° C. with 25 μL (MT4) or of either cell growth medium (mock-infected) or a fresh 1:250 dilution of an HIV-IIIb concentrated ABI stock (0.004 m.o.i. for MT4 cells). Infected and uninfected cells are diluted in cell growth medium and 35 μL of 2000 (for MT4) cells is added to each well of the assay plates.
Assay plates were then incubated in a 37° C. incubator. After 5 days of incubation, 25 μL of 2× concentrated CellTiter-Glo™ Reagent (catalog #G7573, Promega Biosciences, Inc., Madison, Wis.) was added to each well of the assay plate. Cell lysis was carried out by incubating at room temperature for 2-3 minutes, and then chemiluminescence was read using the Envision reader (PerkinElmer).

[2] = molecular target: PXR (Homo sapiens (Human), UniProt O75469); assay: Human PXR activation assay (luciferase reporter gene assay, DPX2 cells); format: cell-based; conditions: human
Experimental: A stably transformed tumor cell line (DPX2) was plated on 96-well microtiter plates. DPX2 cells harbor the human PXR gene (NR112) and a luciferase reporter gene linked to two promoters identified in the human CYP3A4 gene, namely XREM and PXRE. […] The number of viable cells was determined and the reporter gene activity was assessed. Positive control: […]

[3] = 15 μM, relative to maximum fold induction by 10 or 20 μM rifampicin, DPX2 cells, 24 hours, read-out: % Emax at 15 μM

PXR, sequence (O75469 whole entry): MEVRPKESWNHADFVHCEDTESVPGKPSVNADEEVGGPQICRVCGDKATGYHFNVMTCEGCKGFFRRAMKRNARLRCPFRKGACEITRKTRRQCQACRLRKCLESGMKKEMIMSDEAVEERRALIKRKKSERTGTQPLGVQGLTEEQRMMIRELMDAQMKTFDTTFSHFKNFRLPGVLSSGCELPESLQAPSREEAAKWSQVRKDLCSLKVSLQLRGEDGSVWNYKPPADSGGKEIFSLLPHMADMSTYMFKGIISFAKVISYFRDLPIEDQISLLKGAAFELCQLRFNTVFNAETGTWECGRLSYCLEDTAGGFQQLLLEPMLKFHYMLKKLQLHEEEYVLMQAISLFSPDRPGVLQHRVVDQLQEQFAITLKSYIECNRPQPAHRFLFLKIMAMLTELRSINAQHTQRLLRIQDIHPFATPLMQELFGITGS

Structure (SMILES)	CC50 at 5 days ([1]; MT-4 cells, mock-infected, CC50 nM in MT-4, MT-4 cells, 5 days incubation) [nM]	Emax at 24 h, 15 µM [2, 3] [%]	CC50 at 5 days ([1]; CC50 nM in MT-4) [nM]	Emax at 24 h, 15 µM [2] [%]
O=C(NCc1c(F)cc(F)cc1F)c1cn2c(c(O)c1=O)C(=O)N1[C@H]3C[C@H](C3)[C@@H]1C2 (single isomer, unassigned) [Compound 97]	17300	9	–	–
O=C(NCc1ccc(F)cc1F)c1cn2c(c(O)c1=O)C(=O)N1C(C2)[C@H]2CC[C@@H]1C2 (stereo in doubt) [Compound 38, (1S,4R,12aR)-N-(2,4-difluorobenzyl)-7-hydroxy-6,8-dioxo-1,2,3,4,6,8,12,12a-octahydro-1,4-methanodipyrido[1,2-a:1′,2′-d]pyrazine-9-carboxamide]	–	7	10200	–
O=C(NCc1c(F)cc(F)cc1F)c1cn2c(c(O)c1=O)C(=O)N1[C@H]3CC(F)C(C3)[C@@H]1C2 (stereo in doubt) [Compound 56, (1R,2S,4R,12aR)-2-fluoro-7-hydroxy-6,8-dioxo-N-(2,4,6-trifluorobenzyl)-1,2,3,4,6,8,12,12a-octahydro-1,4-methanodipyrido[1,2-a:1′,2′-d]pyrazine-9-carboxamide]	–	–	17200	3
O=C(NCc1ccc(F)cc1F)c1cn2c(c(O)c1=O)C(=O)N1C(C2)[N@@]2CC[C@@H]1C2 (stereo partly drawn) [Compound 4, (1S,4R)-N-(2,4-difluorobenzyl)-7-hydroxy-6,8-dioxo-3,4,6,8,12,12a-hexahydro-2H-1,4-methanopyrido[1′,2′:4,5]pyrazino[1,2-a]pyrimidine-9-carboxamide]	–	–	45800	3
O=C(NCc1ccc(F)cc1F)c1cn2c(c(O)c1=O)C(=O)N1C(C2)[N@]2CC[C@H]1C2 (stereo partly drawn) [Compound 6, (1R,4S)-N-(2,4-difluorobenzyl)-7-hydroxy-6,8-dioxo-3,4,6,8,12,12a-hexahydro-2H-1,4-methanopyrido[1′,2′:4,5]pyrazino[1,2-a]pyrimidine-9-carboxamide]	–	–	–	0
C[C@@H](NC(=O)c1cn2c(c(O)c1=O)C(=O)N1[C@H]3CC[C@H](C3)O[C@@H]1C2)c1ccc(F)cc1 [Compound 10, (2R,5S,13aR)-N—((R)-1-(4-fluorophenyl)ethyl)-8-hydroxy-7,9-dioxo-2,3,4,5,7,9,13,13a-octahydro-2,5-methanopyrido[1′,2′:4,5]pyrazino[2,1-b][1,3]oxazepine-10-carboxamide]	–	–	3670	19
O=C(NCc1ccc(F)cc1)c1cn2c(c(O)c1=O)C(=O)N1[C@@H]3CC[C@@H](C3)O[C@H]1C2 [Compound 15, (2S,5R,13aS)-N-(4-fluorobenzyl)-8-hydroxy-7,9-dioxo-2,3,4,5,7,9,13,13a-octahydro-2,5-methanopyrido[1′,2′:4,5]pyrazino[2,1-b][1,3]oxazepine-10-carboxamide]	–	–	16300	20
O=C(NCc1cccc(F)c1F)c1cn2c(c(O)c1=O)C(=O)N1[C@@H]3CC[C@@H](C3)O[C@H]1C2 [Compound 16, (2S,5R,13aS)-N-(2,3-difluorobenzyl)-8-hydroxy-7,9-dioxo-2,3,4,5,7,9,13,13a-octahydro-2,5-methanopyrido[1′,2′:4,5]pyrazino[2,1-b][1,3]oxazepine-10-carboxamide]	–	–	13600	17
O=C(NCc1ccc(Cl)cc1F)c1cn2c(c(O)c1=O)C(=O)N1[C@@H]3CC[C@@H](C3)O[C@H]1C2 [Compound 17, (2S,5R,13aS)-N-(4-chloro-2-fluorobenzyl)-8-hydroxy-7,9-dioxo-2,3,4,5,7,9,13,13a-octahydro-2,5-methanopyrido[1′,2′:4,5]pyrazino[2,1-b][1,3]oxazepine-10-carboxamide]	–	–	6610	7
O=C(NCc1ccc(F)c(F)c1)c1cn2c(c(O)c1=O)C(=O)N1[C@@H]3CC[C@@H](C3)O[C@H]1C2 [Compound 18, (2S,5R,13aS)-N-(3,4-difluorobenzyl)-8-hydroxy-7,9-dioxo-2,3,4,5,7,9,13,13a-octahydro-2,5-methanopyrido[1′,2′:4,5]pyrazino[2,1-b][1,3]oxazepine-10-carboxamide]	–	–	10300	4
O=C(NCc1ccc(F)cc1F)c1cn2c(c(O)c1=O)C(=O)N1C(C2)[N@]2CCC[C@H]1C2 (stereo partly drawn) [Compound 19, (1R,5S)-N-(2,4-difluorobenzyl)-8-hydroxy-7,9-dioxo-2,3,4,5,7,9, 13,13a-octahydro-1,5-methanopyrido[1′,2′:4,5]pyrazino[1,2-a][1,3]diazepine-10-carboxamide]	–	–	38700	2
O=C(NCc1ccc(F)cc1F)c1cn2c(c(O)c1=O)C(=O)N1C(C2)[N@@]2CCC[C@@H]1C2 (stereo partly drawn) [Compound 20, (1S,5R)-N-(2,4-difluorobenzyl)-8-hydroxy-7,9-dioxo-2,3,4,5,7,9,13,13a-octahydro-1,5-methanopyrido[1′,2′:4,5]pyrazino[1,2-a][1,3]diazepine-10-carboxamide]	–	–	28000	2
O=C(NCc1ccccc1F)c1cn2c(c(O)c1=O)C(=O)N1[C@@H]3CC[C@@H](C3)O[C@H]1C2 [Compound 23, (2S,5R,13aS)-N-(2-fluorobenzyl)-8-hydroxy-7,9-dioxo-2,3,4,5,7,9,13,13a-octahydro-2,5-methanopyrido[1′,2′:4,5]pyrazino[2,1-b][1,3]oxazepine-10-carboxamide]	–	–	13400	45
O=C(NC1(c2ccc(F)cc2F)CC1)c1cn2c(c(O)c1=O)C(=O)N1C(C2)O[C@H]2CCC[C@@H]1C2 (stereo partly drawn) [Compound 28, (2S,6R)-N-(1-(2,4-difluorophenyl)cyclopropyl)-9-hydroxy-8,10-dioxo-3,4,5,6,8,10,14,14a-octahydro-2H-2,6-methanopyrido[1′,2′:4,5]pyrazino[2,1-b][1,3]oxazocine-11-carboxamide]	–	–	18700	6
O=C(NCc1cccc(C(F)(F)F)c1F)c1cn2c(c(O)c1=O)C(=O)N1[C@H]3CC[C@H](C3)[C@@H]1C2 [Compound 74, (1R,4S,12aR)-N-(2-fluoro-3-(trifluoromethyl)benzyl)-7-hydroxy-6,8-dioxo-1,2,3,4,6,8,12,12a-octahydro-1,4-methanodipyrido[1,2-a:1′,2′-d]pyrazine-9-carboxamide]	–	–	4340	–
O=C(NCc1ncc(F)cc1F)c1cn2c(c(O)c1=O)C(=O)N1[C@H]3CC[C@H](C3)[C@@H]1C2 [Compound 76, (1R,4S,12aR)-N-((3,5-difluoropyridin-2-yl)methyl)-7-hydroxy-6,8-dioxo-1,2,3,4,6,8,12,12a-octahydro-1,4-methanodipyrido[1,2-a:1′,2′-d]pyrazine-9-carboxamide]	–	–	34600	–
C[C@@H](NC(=O)c1cn2c(c(O)c1=O)C(=O)N1[C@@H]3CC[C@H](C3)O[C@@H]1C2)c1c(F)cc(F)cc1F [Compound 78, (2R,13aR)-8-hydroxy-7,9-dioxo-N—((R)-1-(2,4,6-trifluorophenyl)ethyl)-2,3,4,5,7,9,13,13a-octahydro-2,5-methanopyrido[1′,2′:4,5]pyrazino[2,1-b][1,3]oxazepine-10-carboxamide]	–	–	3200	–
O=C(NCc1ccccc1)c1cn2c(c(O)c1=O)C(=O)N1[C@H]3CC[C@H](C3)[C@@H]1C2 [Compound 94, (1R,4S,12aR)-N-benzyl-7-hydroxy-6,8-dioxo-1,2,3,4,6,8,12,12a-octahydro-1,4-methanodipyrido[1,2-a:1′,2′-d]pyrazine-9-carboxamide]	–	–	51200	–
